Experiments:
[1] = tested on: T47D (PI3Kα-H1047R) cell line; test: HTRF phospho-AKT(S473) cell assay in T47D cells; assay type: cell-based, human; details: Homo sapiens; T47D (PI3Kα-H1047R) cells, HTRF phospho-AKT(S473), 2 hours compound incubation
Method in brief: (§1)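 T47D: RPMI + 10% FBS + 0.2 units/mL insulin, top 5 μM. SKBR3: McCoy's 5A + 10% FBS, top 10 μM, 70 ng/ml PDGF-BB last 15 min. Both: 12-pt 1:3, 2 h, 37° C, max 0.5% DMSO; HTRF pAKT(S473); IC50.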

[2] = tested on: SKBR3 (PI3Kα-Wild Type) cell line; test: HTRF phospho-AKT(S473) cell assay in SKBR3 cells; assay type: cell-based, human; details: Homo sapiens, SK-BR-3; SKBR3 (PI3Kα-Wild Type) cells, HTRF phospho-AKT(S473), 2 hours compound incubation, PDGF-BB stimulated
Method in brief: as §1

## C[C@@H](Nc1ccc(Cl)nc1C(=O)NS(C)(=O)=O)c1cc(F)cc2c(=O)n(C)c(N3CC[C@H](Oc4cnn(C)c4)C3)nc12 [Compound 388, 6-chloro-3-(((R)-1-(6-fluoro-3-methyl-2-((S)-3-((1-methyl-1H-pyrazol-4-yl)oxy)pyrrolidin-1-yl)-4-oxo-3,4-dihydroquinazolin-8-yl)ethyl)amino)-N-(methylsulfonyl) picolinamide]
[1]
  IC50: < 250 nM
[2]
  IC50: 1000 to 5000 nM

## Cc1cc([C@@H](C)Nc2ccc(Cl)nc2C(=O)NS(C)(=O)=O)c2nc(N3CCC(c4ccnn4C)CC3)n(C)c(=O)c2c1 [Compound 389, (R)-6-chloro-3-((1-(3,6-dimethyl-2-(4-(1-methyl-1H-pyrazol-5-yl)piperidin-1-yl)-4-oxo-3,4-dihydroquinazolin-8-yl)ethyl)amino)-N-(methylsulfonyl) picolinamide]
[1]
  IC50: < 250 nM
[2]
  IC50: 1000 to 5000 nM

## Cc1cc([C@@H](C)Nc2ccc(Cl)nc2C(=O)NS(C)(=O)=O)c2nc(-c3ccc(OC[C@@H]4CCN(C)CC4(F)F)nc3)n(C)c(=O)c2c1 [Compound 390, 6-chloro-3-(((R)-1-(2-(6-(((S)-3,3-difluoro-1-methylpiperidin-4-yl)methoxy)pyridin-3-yl)-3,6-dimethyl-4-oxo-3,4-dihydroquinazolin-8-yl)ethyl)amino)-N-(methylsulfonyl) picolinamide]
[1]
  IC50: < 250 nM
[2]
  IC50: ≥ 5000 nM

## Cc1cc([C@@H](C)Nc2ccc(Cl)nc2C(=O)NS(C)(=O)=O)c2nc(N3C[C@@H]4[C@H](C3)[C@H]4c3nn(C)cc3F)n(C)c(=O)c2c1 [Compound 391, 6-chloro-3-(((R)-1-(2-((1R,5S,6R)-6-(4-fluoro-1-methyl-1H-pyrazol-3-yl)-3-azabicyclo[3.1.0]hexan-3-yl)-3,6-dimethyl-4-oxo-3,4-dihydroquinazolin-8-yl)ethyl)amino)-N-(methylsulfonyl) picolinamide]
[1]
  IC50: 250 to 500 nM
[2]
  IC50: 1000 to 5000 nM

## Cc1cc([C@@H](C)Nc2ccc(Cl)nc2C(=O)NS(C)(=O)=O)c2nc(N3C[C@@H]4[C@H](C3)[C@H]4c3ccc(C#N)cn3)n(C)c(=O)c2c1 [Compound 392, 6-chloro-3-(((R)-1-(2-((1R,5S,6R)-6-(5-cyanopyridin-2-yl)-3-azabicyclo[3.1.0]hexan-3-yl)-3,6-dimethyl-4-oxo-3,4-dihydroquinazolin-8-yl)ethyl)amino)-N-(methylsulfonyl) picolinamide]
[1]
  IC50: 250 to 500 nM
[2]
  IC50: 1000 to 5000 nM

## Cc1cc([C@@H](C)Nc2ccc(Cl)nc2C(=O)NS(C)(=O)=O)c2nc(N3C[C@@H]4[C@H](C3)[C@H]4c3ccc(N(C)C)nc3)n(C)c(=O)c2c1 [Compound 393, 6-chloro-3-(((R)-1-(2-((1R,5S,6S)-6-(6-(dimethylamino)pyridin-3-yl)-3-azabicyclo[3.1.0]hexan-3-yl)-3,6-dimethyl-4-oxo-3,4-dihydroquinazolin-8-yl)ethyl)amino)-N-(methylsulfonyl) picolinamide]
[1]
  IC50: 250 to 500 nM
[2]
  IC50: ≥ 5000 nM

## Cc1cc([C@@H](C)Nc2ccc(Cl)nc2C(=O)NS(C)(=O)=O)c2nc(N3C[C@@H]4[C@H](C3)[C@H]4c3cnc(C)cn3)n(C)c(=O)c2c1 [Compound 394, 6-chloro-3-(((R)-1-(3,6-dimethyl-2-((1R,5S,6R)-6-(5-methylpyrazin-2-yl)-3-azabicyclo[3.1.0]hexan-3-yl)-4-oxo-3,4-dihydroquinazolin-8-yl)ethyl)amino)-N-(methylsulfonyl) picolinamide]
[1]
  IC50: < 250 nM
[2]
  IC50: 1000 to 5000 nM

## Cc1cc([C@@H](C)Nc2ccc(Cl)nc2C(=O)NS(C)(=O)=O)c2nc(N3C[C@@H]4[C@H](C3)[C@H]4c3ccn(C(C)C)n3)n(C)c(=O)c2c1 [Compound 395, 6-chloro-3-(((R)-1-(2-((1R,5S,6R)-6-(1-isopropyl-1H-pyrazol-3-yl)-3-azabicyclo[3.1.0]hexan-3-yl)-3,6-dimethyl-4-oxo-3,4-dihydroquinazolin-8-yl)ethyl)amino)-N-(methylsulfonyl) picolinamide]
[1]
  IC50: 250 to 500 nM
[2]
  IC50: ≥ 5000 nM

## Cc1cc([C@@H](C)Nc2ccc(Cl)nc2C(=O)NS(C)(=O)=O)c2nc(N3Cc4cn(C)nc4C3)n(C)c(=O)c2c1 [Compound 396, (R)-6-chloro-3-((1-(3,6-dimethyl-2-(2-methyl-2,6-dihydropyrrolo[3,4-c]pyrazol-5(4H)-yl)-4-oxo-3,4-dihydroquinazolin-8-yl)ethyl)amino)-N-(methylsulfonyl) picolinamide]
[1]
  IC50: < 250 nM
[2]
  IC50: 1000 to 5000 nM

## C[C@@H](Nc1ccc(Cl)nc1C(=O)NS(C)(=O)=O)c1cc(C2CC2)cc2c(=O)n(C)c(N3CCC(c4nn(C)cc4F)CC3)nc12 [Compound 397, (R)-6-chloro-3-((1-(6-cyclopropyl-2-(4-(4-fluoro-1-methyl-1H-pyrazol-3-yl)piperidin-1-yl)-3-methyl-4-oxo-3,4-dihydroquinazolin-8-yl)ethyl)amino)-N-(methylsulfonyl) picolinamide]
[1]
  IC50: 250 to 500 nM
[2]
  IC50: ≥ 5000 nM

## Cc1cc([C@@H](C)Nc2ccc(Cl)nc2C(=O)NS(C)(=O)=O)c2nc(N3CCC(c4cnccn4)CC3)n(C)c(=O)c2c1 [Compound 398, (R)-6-chloro-3-((1-(3,6-dimethyl-4-oxo-2-(4-(pyrazin-2-yl)piperidin-1-yl)-3,4-dihydroquinazolin-8-yl)ethyl)amino)-N-(methylsulfonyl) picolinamide]
[1]
  IC50: 250 to 500 nM
[2]
  IC50: ≥ 5000 nM

## Cc1cc([C@@H](C)Nc2ccc(Cl)nc2C(=O)NS(C)(=O)=O)c2nc(N3CCC(c4cncc(C)n4)CC3)n(C)c(=O)c2c1 [Compound 399, (R)-6-chloro-3-((1-(3,6-dimethyl-2-(4-(6-methylpyrazin-2-yl)piperidin-1-yl)-4-oxo-3,4-dihydroquinazolin-8-yl)ethyl)amino)-N-(methylsulfonyl) picolinamide]
[1]
  IC50: < 250 nM
[2]
  IC50: ≥ 5000 nM

## COc1cncc(C2CCN(c3nc4c([C@@H](C)Nc5ccc(Cl)nc5C(=O)NS(C)(=O)=O)cc(C)cc4c(=O)n3C)CC2)n1 [Compound 400, (R)-6-chloro-3-((1-(2-(4-(6-methoxypyrazin-2-yl)piperidin-1-yl)-3,6-dimethyl-4-oxo-3,4-dihydroquinazolin-8-yl)ethyl)amino)-N-(methylsulfonyl) picolinamide]
[1]
  IC50: 250 to 500 nM
[2]
  IC50: 1000 to 5000 nM

## Cc1cc([C@@H](C)Nc2ccc(Cl)nc2C(=O)NS(C)(=O)=O)c2nc(N3C[C@@H]4[C@H](C3)[C@H]4c3nn(C)cc3Cl)n(C)c(=O)c2c1 [Compound 401, 6-chloro-3-(((R)-1-(2-((1R,5S,6R)-6-(4-chloro-1-methyl-1H-pyrazol-3-yl)-3-azabicyclo[3.1.0]hexan-3-yl)-3,6-dimethyl-4-oxo-3,4-dihydroquinazolin-8-yl)ethyl)amino)-N-(methylsulfonyl) picolinamide]
[1]
  IC50: 250 to 500 nM
[2]
  IC50: ≥ 5000 nM

## Cc1cc([C@@H](C)Nc2ccc(Cl)nc2C(=O)NS(C)(=O)=O)c2nc(N3C[C@@H]4[C@H](C3)[C@H]4c3ccc(C#N)nc3)n(C)c(=O)c2c1 [Compound 402, 6-chloro-3-(((R)-1-(2-((1R,5S,6S)-6-(6-cyanopyridin-3-yl)-3-azabicyclo[3.1.0]hexan-3-yl)-3,6-dimethyl-4-oxo-3,4-dihydroquinazolin-8-yl)ethyl)amino)-N-(methylsulfonyl) picolinamide]
[1]
  IC50: < 250 nM
[2]
  IC50: 1000 to 5000 nM

## Cc1ccc(C2CCN(c3nc4c([C@@H](C)Nc5ccc(Cl)nc5C(=O)NS(C)(=O)=O)cc(C)cc4c(=O)n3C)CC2)nc1 [Compound 403, (R)-6-chloro-3-((1-(3,6-dimethyl-2-(4-(5-methylpyridin-2-yl)piperidin-1-yl)-4-oxo-3,4-dihydroquinazolin-8-yl)ethyl)amino)-N-(methylsulfonyl) picolinamide]
[1]
  IC50: < 250 nM
[2]
  IC50: ≥ 5000 nM

## Cc1cnc(C2CCN(c3nc4c([C@@H](C)Nc5ccc(Cl)nc5C(=O)NS(C)(=O)=O)cc(C)cc4c(=O)n3C)CC2)nc1 [Compound 404, (R)-6-chloro-3-((1-(3,6-dimethyl-2-(4-(5-methylpyrimidin-2-yl)piperidin-1-yl)-4-oxo-3,4-dihydroquinazolin-8-yl)ethyl)amino)-N-(methylsulfonyl) picolinamide]
[1]
  IC50: < 250 nM
[2]
  IC50: 1000 to 5000 nM

## Cc1cc([C@@H](C)Nc2ccc(Cl)nc2C(=O)NS(C)(=O)=O)c2nc(N3C[C@@H]4[C@H](C3)[C@H]4c3cnc(C)nc3)n(C)c(=O)c2c1 [Compound 405, 6-chloro-3-(((R)-1-(3,6-dimethyl-2-((1R,5S,6S)-6-(2-methylpyrimidin-5-yl)-3-azabicyclo[3.1.0]hexan-3-yl)-4-oxo-3,4-dihydroquinazolin-8-yl)ethyl)amino)-N-(methylsulfonyl) picolinamide]
[1]
  IC50: < 250 nM
[2]
  IC50: 1000 to 5000 nM

## Cc1cc([C@@H](C)Nc2ccc(Cl)nc2C(=O)NS(C)(=O)=O)c2nc(N3CCC(C)(c4nn(C)cc4F)CC3)n(C)c(=O)c2c1 [Compound 406, (R)-6-chloro-3-((1-(2-(4-(4-fluoro-1-methyl-1H-pyrazol-3-yl)-4-methylpiperidin-1-yl)-3,6-dimethyl-4-oxo-3,4-dihydroquinazolin-8-yl)ethyl)amino)-N-(methylsulfonyl) picolinamide]
[1]
  IC50: 250 to 500 nM
[2]
  IC50: ≥ 5000 nM

## Cc1cc([C@@H](C)Nc2ccc(Cl)nc2C(=O)NS(C)(=O)=O)c2nc(N3CCC(C)(c4c(F)cnn4C)CC3)n(C)c(=O)c2c1 [Compound 407, (R)-6-chloro-3-((1-(2-(4-(4-fluoro-1-methyl-1H-pyrazol-5-yl)-4-methylpiperidin-1-yl)-3,6-dimethyl-4-oxo-3,4-dihydroquinazolin-8-yl)ethyl)amino)-N-(methylsulfonyl) picolinamide]
[1]
  IC50: 250 to 500 nM
[2]
  IC50: ≥ 5000 nM
